These results are taken from ChEMBL document CHEMBL4819103, “Discovery of selective fragment-sized immunoproteasome inhibitors” (Eur J Med Chem, 2021).

Calls of active or inactive are those of the source. The rule behind the calls is not given here.

The species entered for data set [1] is Homo sapiens. Nature of the data set: Selectivity ratio of IC50 for human beta1i subunit of iCP Pto IC50 for human chymotrypsin-like beta 5i subunit of iCP.
Data set [2] is filed under the species Homo sapiens. Nature of the data set: Selectivity ratio of IC50 for human beta2i subunit of iCP Pto IC50 for human chymotrypsin-like beta 5i subunit of iCP.
Data set [3] concerns the target T1, Proteasome subunit beta type-8 (Homo sapiens, UniProt P28062).
T1 sequence (P28062 whole entry): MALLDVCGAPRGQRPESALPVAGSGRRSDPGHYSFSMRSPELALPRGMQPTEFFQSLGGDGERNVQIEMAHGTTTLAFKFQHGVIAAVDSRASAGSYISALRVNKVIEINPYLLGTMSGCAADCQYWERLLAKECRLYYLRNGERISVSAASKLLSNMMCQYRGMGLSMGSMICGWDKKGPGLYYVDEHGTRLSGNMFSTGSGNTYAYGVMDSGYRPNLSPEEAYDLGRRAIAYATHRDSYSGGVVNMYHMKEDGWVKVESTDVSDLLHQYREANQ
Nature of the data set: Inhibition of human chymotrypsin-like beta 5i subunit of iCP using suc-LLVY-AMC as flurogenic substrate for 90 mins by fluorescence-based assay.

For data set [4], the species on record is Homo sapiens. Nature of the data set: Selectivity ratio of IC50 for human beta2 subunit of cCP Pto IC50 for human chymotrypsin-like beta 5i subunit of iCP.
For data set [5], the target named is T2, Proteasome Macropain subunit MB1 (Homo sapiens, UniProt P28074).
T2 sequence (P28074 whole entry): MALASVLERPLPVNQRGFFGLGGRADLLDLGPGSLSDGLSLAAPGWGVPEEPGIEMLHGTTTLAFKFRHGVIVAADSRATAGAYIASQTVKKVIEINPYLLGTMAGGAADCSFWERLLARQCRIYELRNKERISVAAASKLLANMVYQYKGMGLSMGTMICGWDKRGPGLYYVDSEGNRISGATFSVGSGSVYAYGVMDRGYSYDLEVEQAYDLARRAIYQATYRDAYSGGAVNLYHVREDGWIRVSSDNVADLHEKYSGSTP
Put plainly: Inhibition of beta 5 chymotrypsin-like activity (unknown origin) using Suc-LLVY-AMC as substrate for 90 mins by fluorescence based assay.

The nature of data set [6]: Thiol reactivity of the compound assessed as TNB2-depletion at 200 uM measured upto 24 hrs by TNB2-depletion assay. The format is physicochemical.
Data set [7] deals with T3, Proteasome Macropain subunit MB1 (Homo sapiens) (UniProt P28074).
T3 sequence (whole entry): T2 sequence (P28074 whole entry)
Put plainly: Inhibition of beta 5 chymotrypsin-like activity (unknown origin) at 100 uM using Suc-LLVY-AMC as substrate for 90 mins by fluorescence based assay. Set-up: scale not given: the % may be the effect or the level left.

A short description of data set [8]: Solubility of the compound in DMSO. The format is physicochemical.
Data set [9] can be described thus: Glutathione reactivity of compound at pH 8.5 measured by HPLC-MS assay. The format is physicochemical.
Data set [10] is described as follows: Glutathione reactivity of compound at pH 9 measured by HPLC-MS assay. The format is physicochemical.
For data set [11], the target named is T4, Proteasome subunit beta type-8 (Homo sapiens) (UniProt P28062).
T4 sequence (whole entry): T1 sequence (P28062 whole entry)
Nature of the data set: Inhibition of human chymotrypsin-like beta 5i subunit of iCP assessed as residual activity using suc-LLVY-AMC as flurogenic substrate at 100 uM for 90 mins by fluorescence-based assay.

The nature of data set [12]: Glutathione reactivity of compound at pH 8 measured by HPLC-MS assay. The format is physicochemical.
Data set [13] can be described thus: Glutathione reactivity of compound at pH 7.5 measured by HPLC-MS assay. The format is physicochemical.
Data set [14] concerns the target T4, Proteasome subunit beta type-8 (Homo sapiens). Put plainly: Inhibition of human chymotrypsin-like beta 5i subunit of iCP assessed as residual activity using suc-LLVY-AMC as flurogenic substrate at 10 uM for 90 mins by fluorescence-based assay.
Data set [15] in a line: Solubility of the compound in buffer. The format is physicochemical.
Data set [16] addresses T4, Proteasome subunit beta type-8 (Homo sapiens). Put plainly: Inhibition of human chymotrypsin-like beta 5i subunit of iCP assessed as residual activity using suc-LLVY-AMC as flurogenic substrate at 150 uM for 90 mins by fluorescence-based assay.
The target is the same in data set [17]. Put plainly: Inhibition of human chymotrypsin-like beta 5i subunit of iCP assessed as cysteine-48 labelling by Ellman's method. Background: In Ellman's method for cholinesterases, released thiocholine reacts with DTNB.

The IC50 is the point on the concentration scale where inhibition reaches its midpoint. On to `O=S(=O)(F)c1nc2ccccc2s1`, for which the Ratio IC50 in the data set filed under Homo sapiens [1], in the data set listed under Homo sapiens [2] and in the data set listed under Homo sapiens [4] was 7 throughout. The concentration for half-maximal inhibition (IC50) in [3] worked out at 11 µM; in data set [5], 81 µM.

As for `Oc1cccc2oc(S)nc12`, the Drug metabolism result in [6] was “Metabolite_Detected”. In data set [3], this molecule gave a half-inhibitory concentration (IC50) of 4.1 µM. For the same molecule, the Activity in data set [7] was found to be 87%.

Regarding `O=C(CCc1cccnc1)Nc1cccc2[nH]c(=S)oc12`, the solubility result in data set [8] is “Insoluble”.

For the molecule `Sc1nc2ccccc2[nH]1` [2-MERCAPTOBENZIMIDAZOLE], in [6], the Drug metabolism entry is reported as “Metabolite_Notdetected”. The molecule further came in with a 50% inhibitory concentration (IC50) in data set [3] of 114 µM. For the same molecule, the Activity in data set [7] stood at 100%.

For `O=[N+]([O-])c1ccc2sc(=S)[nH]c2c1`, the Drug metabolism result in data set [9], in [10], in data set [12] and in data set [13] was “Metabolite_Notdetected” in each case. Moreover, in data set [11], the Activity was 58%.

As to `Sc1nc2ccc(Cl)cc2s1`, the solubility entry in [8] is listed as “Insoluble”.

`Sc1nc2cc(Cl)ccc2o1`: the Drug metabolism result in data set [9], in [10], in [12] and in data set [13] was “Metabolite_Notdetected” throughout. Further, in data set [3], the IC50 was determined as 96 µM.

Regarding `Cc1cccc2[nH]c(=S)[nH]c12`, the Activity in data set [14] was 84%.

Take `N#Cc1nc2cccc(Cl)c2o1`: the IC50 in data set [3] was 10 µM; in data set [5] it was 93 µM.

With `Cn1c(S)nc2ccccc21`, in data set [6], the Drug metabolism result is “Metabolite_Notdetected”. The molecule further gave an IC50 in data set [3] of 94 µM. In data set [7], this molecule registered an Activity of 91%.

Take `Cn1c(=S)[nH]c2ccc(NC(=O)c3ccccc3)cc21`: the Activity in data set [11] was 39%. In [15], the solubility result is “Insoluble”.

Turning to `Sc1nc2cc(Cl)ccc2[nH]1`, the Drug metabolism entry in data set [6], in [9], in data set [10], in data set [12] and in data set [13] was “Metabolite_Notdetected” in each case. Inhibition in data set [3] was half-maximal at 62 µM (IC50). In [7], this molecule displayed an Activity of 98%.

`O=[N+]([O-])c1ccc2oc(=S)[nH]c2c1`: the Drug metabolism entry in data set [9], in [10], in [12] and in [13] was “Metabolite_Notdetected” each time. The molecule further came in with a half-maximal inhibitory concentration (IC50) in data set [3] of 9 µM.

For the molecule `S=c1[nH]c2cccc(Cl)c2s1`, the Drug metabolism entry is reported as “Metabolite_Detected” in data set [6]; “Metabolite_Notdetected” in data set [9]; “Metabolite_Notdetected” in data set [10]; “Metabolite_Notdetected” in [12]; “Metabolite_Notdetected” in data set [13]. In data set [3], this molecule yielded a concentration for half-maximal inhibition (IC50) of 9.7 µM. The Activity in [7] stood at 59%.

`N#Cc1nc2ccccc2o1` returned a concentration for half-maximal inhibition (IC50) in data set [3] of 83 µM. This molecule also displayed an Activity in data set [7] of 82%.

Consider `S=c1[nH]c2cccc(Cl)c2o1`, for which the Drug metabolism result is recorded as “Metabolite_Detected” in data set [6]; “Metabolite_Notdetected” in data set [9]; “Metabolite_Notdetected” in [10]; “Metabolite_Notdetected” in data set [12]; “Metabolite_Notdetected” in data set [13]. Besides, the 50% inhibitory concentration (IC50) in data set [3] amounted to 16 µM. Also, the Activity in data set [7] is 94%.

Take `Cn1c(=S)[nH]c2cccc(Cl)c21`: the Drug metabolism result in data set [6] was “Metabolite_Detected”; in [9] it was “Metabolite_Notdetected”; in data set [10], “Metabolite_Notdetected”; in data set [12] it was “Metabolite_Notdetected”; in [13], “Metabolite_Notdetected”. Besides, the IC50 in data set [3] worked out at 1.8 µM. Besides, the Activity in data set [7] came out at 99%.

As to `Cn1c(C#N)nc2cccc(Cl)c21`, in [3], half-maximal inhibition (IC50) required 20 µM. Further, the Activity in data set [7] was determined as 89%.

As for `Cn1c(S)nc2ccc(Cl)cc21`, the Drug metabolism entry in data set [6] is reported as “Metabolite_Detected”; in data set [9] it was “Metabolite_Notdetected”; in [10], “Metabolite_Notdetected”; in [12], “Metabolite_Notdetected”; in [13] it was “Metabolite_Notdetected”. The same molecule came in with an IC50 in data set [3] of 4.2 µM. For the same molecule, the Activity in data set [7] stood at 94%.

For the molecule `Cn1c(=S)[nH]c2c(Cl)cccc21`, the Activity in data set [16] is 50%.

On to `O=[N+]([O-])c1ccc2nc(S)sc2c1`, for which the Drug metabolism entry in [9], in [10], in data set [12] and in [13] was “Metabolite_Notdetected” each time. In addition, the Activity in [11] was determined as 69%.

In [3], `N#Cc1nc2cccc(Cl)c2[nH]1` returned a 50% inhibitory concentration (IC50) of 75 µM. In [7], this molecule gave an Activity of 82%.

Turning to `S=c1[nH]c2cccc(Br)c2s1`, in data set [6], the Drug metabolism entry is on record as “Metabolite_Detected”. Besides, half-maximal inhibition in [3] (IC50) required 11 µM. The Activity in data set [7] came to 84%.

As for `Cc1ccc2[nH]c(=S)oc2c1`, the Drug metabolism result in [6] is given as “Metabolite_Detected”. Moreover, half-maximal inhibition in [3] (IC50) required 30 µM. The molecule also registered an Activity in [7] of 92%.

Take `COc1ccc2[nH]c(S)nc2c1`: the Activity in [14] came to 97%.

In the case of `CCOc1ccc2[nH]c(S)nc2c1`, in [6], the Drug metabolism result is “Metabolite_Notdetected”. In addition, the results for the Activity in data set [7] and in data set [14] were 95% and 80%, respectively.

`N#Cc1nc2ccc(Cl)cc2o1`: the figures for the half-inhibitory concentration (IC50) in data set [3] and in [5] were 9.1 µM and 45 µM, respectively. Also, in data set [17], the inhibition entry is “Active”.

For the molecule `CC(=O)Nc1ccc2[nH]c(=S)[nH]c2c1`, the Activity in [14] turned out to be 57%.

For `S=c1[nH]c2c(Cl)cccc2s1`, the Drug metabolism entry in data set [9], in data set [10], in data set [12] and in data set [13] was “Metabolite_Notdetected” each time. This molecule also had an IC50 in [3] of 43 µM.

For `Sc1nc2ccccc2o1`, the Drug metabolism result in data set [6] is listed as “Metabolite_Detected”. The molecule further registered a concentration for half-maximal inhibition (IC50) in [3] of 17 µM. The same molecule gave an Activity in [7] of 116%.

Take `S=c1[nH]c2ccc(Cl)cc2o1`: the Drug metabolism entry in data set [9], in data set [10], in [12] and in data set [13] was “Metabolite_Notdetected” in each case. The midpoint of inhibition in data set [3], the IC50, lay at 65 µM.

On to `N#Cc1nc2cccc(Cl)c2s1`, for which the 50% inhibitory concentration (IC50) in [3] is 18 µM. In data set [7], this molecule registered an Activity of 72%.

For the molecule `Cc1ccc2[nH]c(=S)[nH]c2c1`, the Activity in data set [14] came to 95%.

`Sc1nc2ccccc2s1` [2-MERCAPTOBENZOTHIAZOLE]: in [6], the Drug metabolism result is listed as “Metabolite_Detected”. The molecule further gave a concentration for half-maximal inhibition (IC50) in [3] of 13 µM. In [7], this molecule gave an Activity of 85%.

As to `Cn1c(S)nc2cc(Cl)ccc21`, the Drug metabolism result in data set [6], in [9], in data set [10], in data set [12] and in [13] was “Metabolite_Notdetected” throughout. Also, the Activity in data set [16] is 80%; in [7], 100%.

`Cc1ccc2nc(S)sc2c1`: the Activity in data set [11] was 55%. Besides, the solubility entry in [15] is “Insoluble”.

Consider `N#Cc1nc2ccc(Cl)cc2[nH]1`, for which, in data set [3], the IC50 was determined as 28 µM. This molecule yielded an Activity in data set [7] of 71%.

For `Nc1ccc2[nH]c(S)nc2c1`, the Activity in data set [14] was 49%.

For the molecule `N#Cc1nc2cc(Cl)ccc2o1`, inhibition in [3] was half-maximal at 67 µM (IC50). The Activity in data set [7] is 101%.
